Measured values as given in publication PMC5590075, “Synthesis, Antimicrobial, and Antioxidant Activities of Chalcogen-Containing Nitrone Derivatives from (R)-citronellal” (Medicines, 2017).
≈ marks a conversion by molar mass, not a printed value.

How the values were obtained:
Type in all cases: cell-based
all the tested bacteria = assay: MIC and MBC, macro dilution tube method, summary over the panel; details: read-out: MIC and MBC values
Source text: (§1) To evaluate the antimicrobial potential of the synthesized compounds, the following reference strains of bacteria, that are economically important in foods, were employed: Gram-positive Listeria monocytogenes ATCC 7644, Staphylococcus aureus ATCC 25923, and Bacillus cereus ATCC 11778; Gram-negative Salmonella Typhimurium ATCC 14028, Escherichia coli O157: H7 NCTC 12900 and the clinically important Pseudomonas aeruginosa ATCC 15442.
(§2) The antimicrobial activity assay using the disk diffusion test was realized using the methodology that is recommended by the Clinical Laboratory Standards Institute (CLSI). The determination of the minimum inhibitory concentration (MIC) and minimum bactericidal concentration (MBC) was performed using the macro dilution tube method, in accordance with Rota et al., with modifications. Details of these assays are provided in the Supplemental Material. […]
(§3) 2.2. Determination of the minimum inhibitory concentration (MIC) and minimum bactericidal concentration
(§4) The MIC was determined using the macro dilution tube method, in accordance with Rota et al.
[5], with modifications. […]
(§5) The ABTS radical scavenging activity was determined according to the method described by Erel. Different concentrations of compounds 5a–d and 10 (10–500 μ M) were mixed with the ABTS+ solution, and the decrease in the absorbance at 734 nm was recorded.

[1] = system: Pseudomonas aeruginosa ATCC 15442; assay: MIC and MBC, macro dilution tube method; details: P. aeruginosa; for MBC: 10^5 CFU.mL^−1
Source text: as §1, §2, §3, §4
(§6) [5], with modifications. The tested concentrations were 20, 18, 15, 12, 10, 7 and 5 μL.mL‐1 of each compound. In a tube with 1 mL of MH broth, was inoculated 105 UFC.mL‐1, the compound in a predetermined concentration and, to facilitate the solubility, 2 drops of TWEEN 80. The mixture was incubated at 37 °C for 24 h under stirring (150 rpm). As the positive control, MH broth and inoculum concentration in 105 UFC.mL‐1 and as the negative control MH, the inoculum concentration in 105 UFC∙mL‐1 and streptomycin (10 μg) were used. MIC was defined as the lowest concentration of […]
(§7) After 24 h, tubes with no visible growth were seeded in a […] TSA‐YE tube and incubated at 37 °C for 24 h. The MBC is the lowest concentration of compound where 99.9% of the initially inoculated cells were killed. […]
(§8) 2.4. Radical Scavenging Activity […]
as §5

[2] = system: Salmonella Typhimurium ATCC 14028; assay: MIC and MBC, macro dilution tube method; details: S. Typhimurium; for MBC: 10^5 CFU.mL^−1; for MIC: 10^5 CFU.mL^−1, 24 h
Source text: as §1, §2, §3, §4, §6, §7, §8, §5

SMILES	MBC (all the tested bacteria) [µM]	MBC [1] [mM.mL^−1]	MBC [2] [mM.mL^−1]	MIC [2] [mM.mL^−1]	MIC ([1]; 10^5 CFU.mL^−1, 24 h) [mM.mL^−1]
CC(C)=CCCC(C)(C/C=[N+](\C)[O-])Sc1ccccc1 (stereo not drawn) [5c, (E)-N,3,7-trimethyl-3-(phenylthio)oct-6-en-1-imine oxide]	520 to 690 (≈ 152 to 201 µg/mL)	0.61	>0.69	>0.69	
CC(C)=CCCC(C)C/C=[N+](\C)[O-] (stereo not drawn) [5d, (E)-N,3,7-trimethyloct-6-en-1-imine oxide]	1130 to 1260 (≈ 207 to 231 µg/mL)				
CC(C)=CCC[C@@H](C)C(/C=N/O)[Se]c1ccccc1 (stereo partly drawn) [compound 10, (3R,E)-3,7-dimethyl-2-(phenylselanyl)oct-6-enal oxime]		>0.70	>0.70	>0.70	>0.70
